In patent US20230241050A1, “APPLICATIONS OF HPK1 KINASE INHIBITOR IN PREVENTING AND/OR TREATING ANIMAL PATHOGEN INFECTION” (ZHUHAI YUFAN BIOTECHNOLOGIES CO., LTD, priority 2020, published 2023):

How the values were obtained:
[1] = system: feline infectious peritonitis (FIP), feline coronavirus positive; assay: Treatment of a cat with recurrent feline infectious peritonitis (Example 1): daily clinical observation, body weight, chest X-ray; assay type: in vivo; settings: for Food intake: D0: Decreased intake - 3; for Mental state: D0: Listless - 3; for Defecation condition / Respiratory state: D0: Normal - 5; for Body temperature Afternoon: D0 value 38.5; for body weight: 2.5 kg at enrollment (D0)
Method: Lele, a British shorthair cat, 8 months old, female, unneutered, weighing 2.5 kg. The cat had symptoms of elevated body temperature, mental depression, anorexia, and enlarged abdominal circumference in January, 2020. One week later, the cat was admitted. On January 18, the cat was diagnosed with feline infectious peritonitis (FIP) positive. After being treated with GS-441524 for 3 days, the cat was then given furosemide, Synulox®, prednisolone and itraconazole (P.O., q24h, 10 mg/kg) for 1 month. The drugs were discontinued after ascites regressed. […] The cat was enrolled on April 8, and was treated with the drug of the present invention at 2.0 mg/kg (SC, q24h) on days 1-14 (D1-14). Proper supportive treatments were given at the same time, including adjuvant treatment such as Moringa (a hepatoprotective drug), Lysinphirst (lysine) and Doctor Dolittle® (lactoferrin).
The pharmaceutically active compound described above is a pure powder have the following structure. The compound was added to a 0.9% normal saline (50 mL of endotoxin-free water and 0.45 g of NaCl), and the resulting mixture was uniformly mixed and filtered through a filter membrane to give a clarified solution. The diluted compound was stored in a plastic-sealed sterile vial, stored in a refrigerator at 4° C., gently brought to room temperature before injection, and administered using a disposable syringe. The injection ranged across the back, starting from 2 cm posterior to the scapula to the middle of the lumbar spine, half of the distance of the adjacent chest to flank.
The treatment was given by injection in the morning every day, body temperature, appetite, mental state and respiratory state were measured and evaluated at 15:00 pm, and urination and defecation conditions were recorded.
The body weight increased by 9% during and after the treatment.

[2] = system: feline infectious peritonitis (FIP); assay: Clinical survival of cats with clinically confirmed FIP, treatment group vs control group (Example 2); assay type: in vivo, cat; settings: 14 days; 2.0 mg/kg SC q24h D1-D14 plus supportive treatment, 7 cats vs 8 control cats; both pre-treated with GS-441524 for 3 days; Log Rank and Breslow tests, P < 0.05
From the text: A total of 15 cats with clinically confirmed FIP were enrolled, with hydrothorax/ascites, positive CT value by PCR, and no neurological symptoms. 8 cats were allocated into the control group, and 7 cats were allocated into the treatment group.
The groups were pre-treated with GS-441524 for 3 days. For the control group, necessary supportive treatment was given on D1-D14. For the treatment group, after 3 days of observation, necessary supportive treatment and the drug of the present invention (2.0 mg/kg, SC, q24 h) were given on D1-D14.
The occurrence of death or neurological symptoms was judged as clinical death, and the clinical survival curve was plotted after 14 days.

Question: What does the source list for `CN1CCC(c2ncc(-c3cnc(N)c(OCc4cccc(C#CC(C)(C)O)c4)c3)s2)CC1` [the drug of the present invention, 4-(3-{2-amino-5-[2-(1-methyl-piperidin-4-yl)thiazol-5-yl]pyridin-3-yloxymethyl}phenyl)-2-methyl-but-3-yn-2-ol]?
Answer: Food intake ([1]; D1 (4-9), 2.0 mg/kg SC q24h): Decreased intake - 3; Mental state ([1]; D1 (4-9), 2.0 mg/kg SC q24h): Slightly improved - 3.5; Defecation condition ([1]; D1 (4-9), 2.0 mg/kg SC q24h): Normal; Respiratory state ([1]; D1 (4-9), 2.0 mg/kg SC q24h): Normal; Body temperature Afternoon ([1]; D1 (4-9), 2.0 mg/kg SC q24h): 38.6 °C; Food intake ([1]; D2 (4-10), 2.0 mg/kg SC q24h): Improved - 4; Mental state ([1]; D2 (4-10), 2.0 mg/kg SC q24h): Improved - 4; Defecation condition ([1]; D2 (4-10), 2.0 mg/kg SC q24h): Normal; Respiratory state ([1]; D2 (4-10), 2.0 mg/kg SC q24h): Normal; Body temperature Afternoon ([1]; D2 (4-10), 2.0 mg/kg SC q24h): 38.1 °C; Food intake ([1]; D3 (4-11), 2.0 mg/kg SC q24h): Good - 5; Mental state ([1]; D3 (4-11), 2.0 mg/kg SC q24h): Good - 5; Defecation condition ([1]; D3 (4-11), 2.0 mg/kg SC q24h): Normal; Respiratory state ([1]; D3 (4-11), 2.0 mg/kg SC q24h): Normal; Body temperature Afternoon ([1]; D3 (4-11), 2.0 mg/kg SC q24h): 38 °C; Food intake ([1]; D4 (4-12), 2.0 mg/kg SC q24h): Good; Mental state ([1]; D4 (4-12), 2.0 mg/kg SC q24h): Good; Defecation condition ([1]; D4 (4-12), 2.0 mg/kg SC q24h): Normal; Respiratory state ([1]; D4 (4-12), 2.0 mg/kg SC q24h): Normal; Body temperature Afternoon ([1]; D4 (4-12), 2.0 mg/kg SC q24h): 38.3 °C; Food intake ([1]; D5 (4-13), 2.0 mg/kg SC q24h): Good; Mental state ([1]; D5 (4-13), 2.0 mg/kg SC q24h): Good; Defecation condition ([1]; D5 (4-13), 2.0 mg/kg SC q24h): Normal; Respiratory state ([1]; D5 (4-13), 2.0 mg/kg SC q24h): Normal; Body temperature Afternoon ([1]; D5 (4-13), 2.0 mg/kg SC q24h): 38.3 °C; Food intake ([1]; D6 (4-14), 2.0 mg/kg SC q24h): Good; Mental state ([1]; D6 (4-14), 2.0 mg/kg SC q24h): Good; Defecation condition ([1]; D6 (4-14), 2.0 mg/kg SC q24h): Normal; Respiratory state ([1]; D6 (4-14), 2.0 mg/kg SC q24h): Normal; Body temperature Afternoon ([1]; D6 (4-14), 2.0 mg/kg SC q24h): 38.3 °C; body weight ([1]; D7 (4-15), 2.0 mg/kg SC q24h): 2.75 kg body weight; Food intake ([1]; D7 (4-15), 2.0 mg/kg SC q24h): Good; Mental state ([1]; D7 (4-15), 2.0 mg/kg SC q24h): Good; Defecation condition ([1]; D7 (4-15), 2.0 mg/kg SC q24h): Normal; Respiratory state ([1]; D7 (4-15), 2.0 mg/kg SC q24h): Normal; Body temperature Afternoon ([1]; D7 (4-15), 2.0 mg/kg SC q24h): 38.1 °C; Food intake ([1]; D8 (4-16), 2.0 mg/kg SC q24h): Good; Mental state ([1]; D8 (4-16), 2.0 mg/kg SC q24h): Good; Defecation condition ([1]; D8 (4-16), 2.0 mg/kg SC q24h): Normal; Respiratory state ([1]; D8 (4-16), 2.0 mg/kg SC q24h): Normal; Body temperature Afternoon ([1]; D8 (4-16), 2.0 mg/kg SC q24h): 38 °C; Food intake ([1]; D9 (4-17), 2.0 mg/kg SC q24h): Good; Mental state ([1]; D9 (4-17), 2.0 mg/kg SC q24h): Good; Defecation condition ([1]; D9 (4-17), 2.0 mg/kg SC q24h): Normal; Respiratory state ([1]; D9 (4-17), 2.0 mg/kg SC q24h): Normal; Body temperature Afternoon ([1]; D9 (4-17), 2.0 mg/kg SC q24h): 38.2 °C; Food intake ([1]; D10 (4-18), 2.0 mg/kg SC q24h): Good; Mental state ([1]; D10 (4-18), 2.0 mg/kg SC q24h): Good; Defecation condition ([1]; D10 (4-18), 2.0 mg/kg SC q24h): Normal; Respiratory state ([1]; D10 (4-18), 2.0 mg/kg SC q24h): Normal; Body temperature Afternoon ([1]; D10 (4-18), 2.0 mg/kg SC q24h): 38.3 °C; Food intake ([1]; D11 (4-19), 2.0 mg/kg SC q24h): Good; Mental state ([1]; D11 (4-19), 2.0 mg/kg SC q24h): Good; Defecation condition ([1]; D11 (4-19), 2.0 mg/kg SC q24h): Normal; Respiratory state ([1]; D11 (4-19), 2.0 mg/kg SC q24h): Normal; Body temperature Afternoon ([1]; D11 (4-19), 2.0 mg/kg SC q24h): 38.4 °C; Food intake ([1]; D12 (4-20), 2.0 mg/kg SC q24h): Good; Mental state ([1]; D12 (4-20), 2.0 mg/kg SC q24h): Good; Defecation condition ([1]; D12 (4-20), 2.0 mg/kg SC q24h): Normal; Respiratory state ([1]; D12 (4-20), 2.0 mg/kg SC q24h): Normal; Body temperature Afternoon ([1]; D12 (4-20), 2.0 mg/kg SC q24h): 38.5 °C; Body temperature Morning ([1]; D13 (4-21), 2.0 mg/kg SC q24h): 38.9 °C; Food intake ([1]; D13 (4-21), 2.0 mg/kg SC q24h): Good; Mental state ([1]; D13 (4-21), 2.0 mg/kg SC q24h): Good; Defecation condition ([1]; D13 (4-21), 2.0 mg/kg SC q24h): Normal; Respiratory state ([1]; D13 (4-21), 2.0 mg/kg SC q24h): Normal; Body temperature Afternoon ([1]; D13 (4-21), 2.0 mg/kg SC q24h): 38.5 °C; Body temperature Morning ([1]; D14 (4-22), 2.0 mg/kg SC q24h): 38.4 °C; body weight ([1]; D14 (4-22), 2.0 mg/kg SC q24h): 2.75 kg body weight; Food intake ([1]; D14 (4-22), 2.0 mg/kg SC q24h): Good; Mental state ([1]; D14 (4-22), 2.0 mg/kg SC q24h): Good; Defecation condition ([1]; D14 (4-22), 2.0 mg/kg SC q24h): Normal; Respiratory state ([1]; D14 (4-22), 2.0 mg/kg SC q24h): Normal; Body temperature Afternoon ([1]; D14 (4-22), 2.0 mg/kg SC q24h): 38.4 °C; clinical response (appetite, mental state, weight) ([1]; after 2 weeks of treatment, 2.0 mg/kg SC q24h): remarkable clinical response with improved appetite and mental state, and weight gain; body weight increase ([1]; during and after the treatment (D1-14, 2.0 mg/kg SC q24h)): 9%; hydrothorax (chest X-ray) ([1]; since about 7 days after the treatment, 2.0 mg/kg SC q24h): completely regressed; body temperature maintained in the normal range ([1]; throughout the treatment (D1-14, 2.0 mg/kg SC q24h), no fever at enrollment): 38-38.5 °C; clinical survival curve (death or neurological symptoms = clinical death), treatment group vs control group [2]: significant difference
